Data from ChEMBL document CHEMBL5634194, “Novel Myeloperoxidase Inhibitors for Treating Multiple Diseases” (ACS Med Chem Lett, 2024).

Each compound was assayed against T1, Myeloperoxidase (Homo sapiens, UniProt P05164) (assay: Inhibition of human MPO using H2O2 as substrate measured after 15 mins by chemiluminescence based assay).
T1 sequence (P05164 whole entry): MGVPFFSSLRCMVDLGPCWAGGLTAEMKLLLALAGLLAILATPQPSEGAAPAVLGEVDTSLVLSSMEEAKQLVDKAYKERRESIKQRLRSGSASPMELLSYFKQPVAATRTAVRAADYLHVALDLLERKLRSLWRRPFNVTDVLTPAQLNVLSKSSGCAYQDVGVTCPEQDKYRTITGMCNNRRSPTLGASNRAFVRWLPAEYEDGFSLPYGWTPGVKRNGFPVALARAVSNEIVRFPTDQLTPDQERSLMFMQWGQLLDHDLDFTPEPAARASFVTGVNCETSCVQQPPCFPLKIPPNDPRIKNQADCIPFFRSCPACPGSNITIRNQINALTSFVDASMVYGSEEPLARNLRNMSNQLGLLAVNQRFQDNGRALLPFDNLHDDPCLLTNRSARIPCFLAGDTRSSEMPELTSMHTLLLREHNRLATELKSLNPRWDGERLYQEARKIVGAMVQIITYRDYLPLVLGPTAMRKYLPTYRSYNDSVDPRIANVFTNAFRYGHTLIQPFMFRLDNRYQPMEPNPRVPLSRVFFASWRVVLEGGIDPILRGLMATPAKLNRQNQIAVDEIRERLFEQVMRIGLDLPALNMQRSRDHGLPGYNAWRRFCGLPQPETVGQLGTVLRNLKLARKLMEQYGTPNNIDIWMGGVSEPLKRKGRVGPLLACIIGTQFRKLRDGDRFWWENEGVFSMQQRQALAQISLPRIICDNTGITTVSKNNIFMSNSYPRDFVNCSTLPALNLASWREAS

IC50 [nM]	Compound
3	O=c1[nH]c(=S)n(Cc2ccccc2[C@@H]2CC(F)(F)CCN2)c2cc[nH]c12
3	O=c1[nH]c(=S)n(Cc2ccccc2[C@H]2C[C@H](C(F)(F)F)CCN2)c2nc[nH]c12
2	O=c1[nH]c(=S)n(Cc2ccccc2[C@@H]2C[C@H](C(F)(F)F)CCN2)c2nc[nH]c12
1	O=c1[nH]c(=S)n(Cc2ccccc2[C@@H]2C[C@H](C(F)F)CCN2)c2cc[nH]c12
2	O=c1[nH]c(=S)n(Cc2ccccc2[C@@H]2CCCCN2)c2cc[nH]c12
2	O=c1[nH]c(=S)n(Cc2ccccc2[C@H]2C[C@@H](C(F)(F)F)CCN2)c2cc[nH]c12
